The target of assay [1] is PI3K alpha (Homo sapiens (Human), UniProt P42336). Description: Enzymatic PI3K alpha isoform inhibition (lipid kinase, Kinase-Glo luminescence). It counts as biochemical. To be noted: enzymatic assay.
Assay [2] deals with PI3K delta (Homo sapiens (Human), UniProt O00329). Description: Enzymatic PI3K delta isoform inhibition (lipid kinase, Kinase-Glo luminescence). The assay is classed as biochemical. To be noted: enzymatic assay.

For orientation: IC50 means the concentration at which inhibition is half-maximal. Low readings indicate greater potency, high ones weaker potency.

PI3K delta, sequence (O00329 other isoform, or with tags, fused parts or gaps linker GGGGGG): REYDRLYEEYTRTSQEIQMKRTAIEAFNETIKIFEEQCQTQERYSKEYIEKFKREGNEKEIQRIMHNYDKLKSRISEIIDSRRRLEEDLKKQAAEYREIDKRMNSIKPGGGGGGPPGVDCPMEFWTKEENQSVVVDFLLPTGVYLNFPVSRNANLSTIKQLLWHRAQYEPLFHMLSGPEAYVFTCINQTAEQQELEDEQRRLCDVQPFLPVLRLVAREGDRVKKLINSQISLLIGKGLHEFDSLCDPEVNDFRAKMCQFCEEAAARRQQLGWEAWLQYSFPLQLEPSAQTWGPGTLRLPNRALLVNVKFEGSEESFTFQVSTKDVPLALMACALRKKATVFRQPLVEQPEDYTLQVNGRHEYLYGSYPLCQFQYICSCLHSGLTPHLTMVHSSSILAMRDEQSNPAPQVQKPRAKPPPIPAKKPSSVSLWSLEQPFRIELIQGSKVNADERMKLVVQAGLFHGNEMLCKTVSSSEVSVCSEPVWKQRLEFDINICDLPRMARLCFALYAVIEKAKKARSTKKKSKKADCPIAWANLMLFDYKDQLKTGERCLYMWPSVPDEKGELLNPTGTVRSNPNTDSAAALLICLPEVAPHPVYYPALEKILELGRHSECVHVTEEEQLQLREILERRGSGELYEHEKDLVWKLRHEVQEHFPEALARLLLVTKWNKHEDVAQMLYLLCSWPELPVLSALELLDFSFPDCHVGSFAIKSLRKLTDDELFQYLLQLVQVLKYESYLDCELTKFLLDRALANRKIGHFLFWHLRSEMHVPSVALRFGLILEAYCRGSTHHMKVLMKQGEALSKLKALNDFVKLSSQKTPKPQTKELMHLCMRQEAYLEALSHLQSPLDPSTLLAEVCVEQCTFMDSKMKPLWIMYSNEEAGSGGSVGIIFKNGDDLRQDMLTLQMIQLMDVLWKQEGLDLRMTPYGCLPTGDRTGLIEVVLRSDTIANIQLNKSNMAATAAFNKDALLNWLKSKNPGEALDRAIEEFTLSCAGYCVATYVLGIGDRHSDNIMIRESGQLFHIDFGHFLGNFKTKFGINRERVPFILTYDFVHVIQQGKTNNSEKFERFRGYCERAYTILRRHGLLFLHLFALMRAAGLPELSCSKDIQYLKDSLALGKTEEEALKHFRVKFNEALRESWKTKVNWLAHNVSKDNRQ
PI3K alpha, sequence (P42336 other isoform, or with tags, fused parts or gaps): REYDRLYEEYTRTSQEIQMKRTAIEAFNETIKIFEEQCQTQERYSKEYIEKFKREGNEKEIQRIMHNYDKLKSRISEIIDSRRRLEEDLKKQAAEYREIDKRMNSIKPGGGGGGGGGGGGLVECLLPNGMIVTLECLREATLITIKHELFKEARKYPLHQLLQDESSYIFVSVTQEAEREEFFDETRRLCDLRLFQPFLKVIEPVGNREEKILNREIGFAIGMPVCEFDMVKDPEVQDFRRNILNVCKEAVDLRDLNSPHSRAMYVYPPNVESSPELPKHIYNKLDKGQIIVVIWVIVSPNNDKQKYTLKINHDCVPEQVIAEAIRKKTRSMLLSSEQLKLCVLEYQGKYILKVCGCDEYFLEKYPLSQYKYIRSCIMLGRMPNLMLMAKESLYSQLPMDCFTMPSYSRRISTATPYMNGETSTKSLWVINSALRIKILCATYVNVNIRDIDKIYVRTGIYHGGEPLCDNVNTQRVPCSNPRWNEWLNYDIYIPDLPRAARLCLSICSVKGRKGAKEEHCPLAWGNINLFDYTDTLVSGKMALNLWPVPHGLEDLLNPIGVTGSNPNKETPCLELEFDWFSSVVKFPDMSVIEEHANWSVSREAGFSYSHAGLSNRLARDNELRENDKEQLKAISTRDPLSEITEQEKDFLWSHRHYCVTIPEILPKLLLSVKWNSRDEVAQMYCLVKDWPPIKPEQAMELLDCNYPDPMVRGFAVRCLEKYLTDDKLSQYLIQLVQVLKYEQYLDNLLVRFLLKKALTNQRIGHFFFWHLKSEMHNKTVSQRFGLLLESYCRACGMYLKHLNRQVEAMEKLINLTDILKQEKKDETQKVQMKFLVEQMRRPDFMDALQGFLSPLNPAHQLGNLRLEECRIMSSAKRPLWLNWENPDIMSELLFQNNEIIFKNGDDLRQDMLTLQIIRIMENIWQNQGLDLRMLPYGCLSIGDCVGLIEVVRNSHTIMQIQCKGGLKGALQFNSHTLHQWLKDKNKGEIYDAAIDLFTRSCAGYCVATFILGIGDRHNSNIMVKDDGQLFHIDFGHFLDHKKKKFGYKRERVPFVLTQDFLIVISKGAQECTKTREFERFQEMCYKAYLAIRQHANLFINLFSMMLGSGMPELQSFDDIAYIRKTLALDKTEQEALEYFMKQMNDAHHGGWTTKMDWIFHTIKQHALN

`COc1cc(N2CCc3ncnc(O[C@H]4CCN(C(=O)C5CCC(F)(F)CC5)C4)c3C2)cnc1OC` [Example 26, (4,4-Difluoro-cyclohexyl)-{(S)-3-[6-(5,6-dimethoxy-pyridin-3-yl)-5,6,7,8-tetrahydro-pyrido[4,3-d]pyrimidin-4-yloxy]-pyrrolidin-1-yl}-methanone]: the IC50 worked out at 368 nM in assay [1] and 21 nM in assay [2].
For `COc1ncc(N2CCc3ncnc(O[C@H]4CCN(C(=O)CC5CCOCC5)C4)c3C2)cc1C#N` [Example 27, 2-Methoxy-5-{4-[(S)-1-(2-tetrahydro-pyran-4-yl-acetyl)-pyrrolidin-3-yloxy]-7,8-dihydro-5H-pyrido[4,3-d]pyrimidin-6-yl}-nicotinonitrile], the 50% inhibitory concentration (IC50) in assay [1] was found to be 3410 nM; in assay [2], 40 nM.
Take `COc1ncc(N2CCc3ncnc(O[C@H]4CCN(C(=O)C5CCOC(C)(C)C5)C4)c3C2)cc1C#N` (stereo partly drawn) [Example 29, 5-{4-[(S)-1-(2,2-Dimethyl-tetrahydro-pyran-4-carbonyl)-pyrrolidin-3-yloxy]-7,8-dihydro-5H-pyrido[4,3-d]pyrimidin-6-yl}-2-methoxy-nicotinonitrile]: the half-maximal inhibitory concentration (IC50) in assay [1] worked out at 2580 nM; in assay [2], 11 nM.
Regarding `COc1ncc(N2CCc3ncnc(O[C@H]4CCN(C(=O)c5ncoc5C)C4)c3C2)cc1C` [Example 30, {(S)-3-[6-(6-Methoxy-5-methyl-pyridin-3-yl)-5,6,7,8-tetrahydro-pyrido[4,3-d]pyrimidin-4-yloxy]-pyrrolidin-1-yl}-(5-methyl-oxazol-4-yl)-methanone], the results for the half-maximal inhibitory concentration (IC50) in assay [1] and in assay [2] were 2830 nM and 40 nM, respectively.
In the same order, the values of `COc1ncc(N2CCc3ncnc(O[C@H]4CCN(C(=O)c5cnoc5C)C4)c3C2)cc1C` [Example 31, {(S)-3-[6-(6-Methoxy-5-methyl-pyridin-3-yl)-5,6,7,8-tetrahydro-pyrido[4,3-d]pyrimidin-4-yloxy]-pyrrolidin-1-yl}-(5-methyl-isoxazol-4-yl)-methanone] are 3020 nM and 21 nM.
`COc1ncc(N2CCc3ncnc(O[C@H]4CCN(C(=O)c5conc5C)C4)c3C2)cc1C` [Example 32, {(S)-3-[6-(6-Methoxy-5-methyl-pyridin-3-yl)-5,6,7,8-tetrahydro-pyrido[4,3-d]pyrimidin-4-yloxy]-pyrrolidin-1-yl}-(3-methyl-isoxazol-4-yl)-methanone]: the IC50 in assay [1] worked out at 2040 nM; in assay [2], 23 nM.
For `COc1ncc(N2CCc3ncnc(O[C@H]4CCN(C(=O)c5ccon5)C4)c3C2)cc1C` [Example 33, Isoxazol-3-yl-{(S)-3-[6-(6-Methoxy-5-methyl-pyridin-3-yl)-5,6,7,8-tetrahydro-pyrido[4,3-d]pyrimidin-4-yloxy]-pyrrolidin-1-yl}-methanone], the IC50 in assay [1] was determined as 1970 nM; in assay [2] it was 18 nM.
In the same order, the values of `COc1ncc(N2CCc3ncnc(O[C@H]4CCN(C(=O)c5ccno5)C4)c3C2)cc1C` [Example 34, Isoxazol-5-yl-{(S)-3-[6-(6-Methoxy-5-methyl-pyridin-3-yl)-5,6,7,8-tetrahydro-pyrido[4,3-d]pyrimidin-4-yloxy]-pyrrolidin-1-yl}-methanone] are 1650 nM and 14 nM.
For `COc1ncc(N2CCc3ncnc(O[C@H]4CCN(C(=O)c5cscn5)C4)c3C2)cc1C#N` [Example 35, 2-Methoxy-5-{4-[(S)-1-(thiazole-4-carbonyl)-pyrrolidin-3-yloxy]-7,8-dihydro-5H-pyrido[4,3-d]pyrimidin-6-yl}-nicotinonitrile], the 50% inhibitory concentration (IC50) in assay [1] came out at 4230 nM; in assay [2], 49 nM.
For `COc1ncc(N2CCc3ncnc(O[C@H]4CCN(C(=O)c5cnn(C)c5)C4)c3C2)cc1C#N` [Example 36, 2-Methoxy-5-{4-[(S)-1-(1-methyl-1H-pyrazole-4-carbonyl)-pyrrolidin-3-yloxy]-7,8-dihydro-5H-pyrido[4,3-d]pyrimidin-6-yl}-nicotinonitrile], the IC50 in assay [1] was 4100 nM; in assay [2] it was 25 nM.
With `COc1ncc(N2CCc3ncnc(O[C@H]4CCN(C(=O)c5ccn(C)n5)C4)c3C2)cc1C#N` [Example 37, 2-Methoxy-5-{4-[(S)-1-(1-methyl-1H-pyrazole-3-carbonyl)-pyrrolidin-3-yloxy]-7,8-dihydro-5H-pyrido[4,3-d]pyrimidin-6-yl}-nicotinonitrile], the IC50 in assay [1] worked out at 7020 nM; in assay [2] it was 31 nM.
For the compound `COc1ncc(N2CCc3ncnc(O[C@H]4CCN(C(=O)C5CCOC(C)(C)C5)C4)c3C2)cc1C` (stereo partly drawn) [Example 38, (2,2-Dimethyl-tetrahydro-pyran-4yl)-{(S)-3-[6-(6-Methoxy-5-methyl-pyridin-3-yl)-5,6,7,8-tetrahydro-pyrido[4,3-d]pyrimidin-4-yloxy]-pyrrolidin-1-yl}-methanone], the IC50 was 3310 nM in assay [1] and 16 nM in assay [2].
For the compound `COc1ncc(N2CCc3ncnc(O[C@H]4CCN(C(=O)C5CCS(=O)(=O)CC5)C4)c3C2)cc1C(F)(F)F` [Example 39, (1,1-Dioxo-hexahydro-1lambda*6*-thiopyran-4-yl)-{(S)-3-[6-(6-methoxy-5-trifluoromethyl-pyridin-3-yl)-5,6,7,8-tetrahydro-pyrido[4,3-d]pyrimidin-4-yloxy]-pyrrolidin-1-yl}-methanone], the IC50 is 434 nM in assay [1] and 9 nM in assay [2].
Turning to `COc1ncc(N2CCc3ncnc(O[C@H]4CCN(C(=O)c5oc(C)nc5C)C4)c3C2)cc1C(F)(F)F` [Example 40, (2,4-Dimethyl-oxazol-5-yl)-{(S)-3-[6-(6-methoxy-5-trifluoromethyl-pyridin-3-yl)-5,6,7,8-tetrahydro-pyrido[4,3-d]pyrimidin-4-yloxy]-pyrrolidin-1-yl}-methanone], the IC50 in assay [1] is 260 nM; in assay [2], 6 nM.
The corresponding values for `COc1ncc(N2CCc3ncnc(O[C@H]4CCN(C(=O)c5cncs5)C4)c3C2)cc1C(F)(F)F` [Example 41, {(S)-3-[6-(6-Methoxy-5-trifluoromethyl-pyridin-3-yl)-5,6,7,8-tetrahydro-pyrido[4,3-d]pyrimidin-4-yloxy]-pyrrolidin-1-yl}-thiazol-5-yl-methanone] are 515 nM and 14 nM.
The corresponding values for `COc1ncc(N2CCc3ncnc(O[C@H]4CCN(C(=O)c5ccnn5C)C4)c3C2)cc1C(F)(F)F` [Example 42, {(S)-3-[6-(6-Methoxy-5-trifluoromethyl-pyridin-3-yl)-5,6,7,8-tetrahydro-pyrido[4,3-d]pyrimidin-4-yloxy]-pyrrolidin-1-yl}-(2-methyl-2H-pyrazol-3-yl)-methanone] are 863 nM and 13 nM.
The corresponding values for `COc1ncc(N2CCc3ncnc(O[C@H]4CCN(C(=O)C5CNC(=O)C5)C4)c3C2)cc1C(F)(F)F` (stereo partly drawn) [Example 43, 4-{(S)-3-[6-(6-Methoxy-5-trifluoromethyl-pyridin-3-yl)-5,6,7,8-tetrahydro-pyrido[4,3-d]pyrimidin-4-yloxy]-pyrrolidine-1-carbonyl}-pyrrolidin-2-one] are 728 nM and 16 nM.
As to `COc1ncc(N2CCc3ncnc(O[C@H]4CCN(C(=O)c5cccnc5)C4)c3C2)cc1C(F)(F)F` [Example 44, {(S)-3-[6-(6-Methoxy-5-trifluoromethyl-pyridin-3-yl)-5,6,7,8-tetrahydro-pyrido[4,3-d]pyrimidin-4-yloxy]-pyrrolidin-1-yl}-pyridin-3-yl-methanone], the figures for the half-maximal inhibitory concentration (IC50) in assay [1] and in assay [2] were 1190 nM and 16 nM, respectively.

The record behind these values is US8653092B2, “Tetrahydro-pyrido-pyrimidine derivatives” (Novartis AG, priority 2010, dated 2014).
